Assay results as given in patent US20050282159A1, “Rpob gene of streptomyces, primer specific to streptomyces, and identification method of streptomyces having rifampin resistance or sensitivity by using the same” (priority 2001, published 2005).

What was measured:
S. aminophilus KCTC 9673 = test: rifampin-sensitive test on Bennet solid media; type: cell-based; set-up: key: “(+)” indicates a genotype with rifampin-resistance; “(−)” indicates a genotype with rifampin-susceptibility; conditions: AAC genotype, 25 ug/ml rifampin, 72 hr
Procedure: (§1) The 47 strains were respectively cultured at 28° C. for 72 hr in Bennet liquid media. The culture solution was then inoculated on Bennet solid media (yeast extract 1 g/L, Beef extract 1 g/L, Tryptone 2 g/L, Glycerol 10 g/L, Agar 15 g/L) containing 25 ug/ml rifampin, and after incubation for 72 hr, rifampin-resistance was tested.

[1] = test system: S. antimycoticus KCTC 9694; test: rifampin-sensitive test on Bennet solid media; type: cell-based; set-up: key: “(+)” indicates a genotype with rifampin-resistance; “(−)” indicates a genotype with rifampin-susceptibility; conditions: TCG (TCC) genotype, 25 ug/ml rifampin, 72 hr
Procedure: as §1

[2] = test system: S. capillispiralis KCTC 1719; test: rifampin-sensitive test on Bennet solid media; type: cell-based; set-up: key: “(+)” indicates a genotype with rifampin-resistance; “(−)” indicates a genotype with rifampin-susceptibility; conditions: AAC genotype, 25 ug/ml rifampin, 72 hr
Procedure: as §1

S. chartreuses KCTC 9704 = test: rifampin-sensitive test on Bennet solid media; type: cell-based; set-up: key: “(+)” indicates a genotype with rifampin-resistance; “(−)” indicates a genotype with rifampin-susceptibility; conditions: TCG (TCC) genotype, 25 ug/ml rifampin, 72 hr
Procedure: as §1

[3] = test system: S. chattanoogensis KCTC 1087; test: rifampin-sensitive test on Bennet solid media; type: cell-based; set-up: key: “(+)” indicates a genotype with rifampin-resistance; “(−)” indicates a genotype with rifampin-susceptibility; conditions: TCG (TCC) genotype, 25 ug/ml rifampin, 72 hr
Procedure: as §1

[4] = test system: S. chrysomallus KCTC 9705; test: rifampin-sensitive test on Bennet solid media; type: cell-based; set-up: key: “(+)” indicates a genotype with rifampin-resistance; “(−)” indicates a genotype with rifampin-susceptibility; conditions: TCG (TCC) genotype, 25 ug/ml rifampin, 72 hr
Procedure: as §1

S. ederensis KCTC 9726 = test: rifampin-sensitive test on Bennet solid media; type: cell-based; set-up: key: “(+)” indicates a genotype with rifampin-resistance; “(−)” indicates a genotype with rifampin-susceptibility; conditions: AAC genotype, 25 ug/ml rifampin, 72 hr
Procedure: as §1

S. pulveraceus KCTC 9766 = test: rifampin-sensitive test on Bennet solid media; type: cell-based; set-up: key: “(+)” indicates a genotype with rifampin-resistance; “(−)” indicates a genotype with rifampin-susceptibility; conditions: AAC genotype, 25 ug/ml rifampin, 72 hr
Procedure: as §1

S. alboviridis KCTC 9750 = test: rifampin-sensitive test on Bennet solid media; type: cell-based; set-up: key to genotype (rifampin-resistance or susceptibility): “(+)” indicates a genotype with rifampin-resistance; “(−)” indicates a genotype with rifampin-susceptibility
Procedure: as §1

S. cinerous KCTC 9066 = test: rifampin-sensitive test on Bennet solid media; type: cell-based; set-up: key to genotype (rifampin-resistance or susceptibility): “(+)” indicates a genotype with rifampin-resistance; “(−)” indicates a genotype with rifampin-susceptibility
Procedure: as §1

[5] = test system: S. anthocyanicus KCTC 9755; test: rifampin genotype by rpoB nucleotide sequence analysis; conditions: AAC genotype
Procedure: (§2) The primer sets of SEQ ID NOs: 1 and 2 were used to amplify rpoB genes of 60 strains, and nucleotides of the […] products were analyzed with an automatic sequencer. SRPOF1 as a forward primer and SRPOR1 as a backward primer were used.
(§3) FIG. 8 is an electropherogram obtained by amplifying 306-bp rpoB gene fragment with the SRPOF1 and SRPOR1 primer set and automatically sequencing with an SRPOF1 primer.

[6] = test system: S. atroolvaceous KCTC 9017; test: as above
Procedure: as §2, §3

S. humidus KCCM 40647 = test: as above
Procedure: as §2, §3

[7] = test system: S. albovinaceous KCCM 40177; conditions: TCG (TCC) genotype
Procedure: as §2

[8] = test system: S. ambofaciens KCCM 40182; conditions: AAC genotype
Procedure: as §2

[9] = test system: S. antibioticus KCTC 1137; conditions: TCG (TCC) genotype
Procedure: as §2

[10] = test system: S. californicus KCCM 40605; conditions: TCG (TCC) genotype
Procedure: as §2

S. candidus KCTC 9020 = conditions: TCG (TCC) genotype
Procedure: as §2

S. chivaensis KCTC 9786 = conditions: AAC genotype
Procedure: as §2

[11] = test system: S. cinnamoneus KCCM 40572; conditions: TCG (TCC) genotype
Procedure: as §2

[12] = test system: S. cyaneofuscatus KCCM 40517; conditions: TCG (TCC) genotype
Procedure: as §2

S. erumpens KCTC 9729 = conditions: TCG (TCC) genotype
Procedure: as §2

[13] = test system: S. flavovirens KCCM 40165; conditions: TCG (TCC) genotype
Procedure: as §2

S. fulvissimus KCTC 9773 = conditions: TCG (TCC) genotype
Procedure: as §2

[14] = test system: S. griseostramineus KCCM 40526; conditions: TCG (TCC) genotype
Procedure: as §2

S. halstedii KCCM 40613 = conditions: TCG (TCC) genotype
Procedure: as §2

S. humiferus KCTC 9116 = conditions: AAC genotype
Procedure: as §2

S. lividans KCTC 1154 = conditions: AAC genotype
Procedure: as §2

S. piosus KCCM 40480 = conditions: AAC genotype
Procedure: as §2

[15] = test system: S. violaceoruber KCTC 9787; conditions: AAC genotype
Procedure: as §2

[16] = test system: S. xanthocidicus KCCM 40286; conditions: AAC genotype
Procedure: as §2

CO[C@H]1/C=C/O[C@@]2(C)Oc3c(C)c(O)c4c(O)c(c(/C=N/N5CCN(C)CC5)c(O)c4c3C2=O)NC(=O)/C(C)=C\C=C\[C@H](C)[C@H](O)[C@@H](C)[C@@H](O)[C@@H](C)[C@H](OC(C)=O)[C@@H]1C [rifampin]
genotype (rifampin-resistance or susceptibility) (S. aminophilus KCTC 9673): + | genotype (rifampin-resistance or susceptibility) [1]: − | genotype (rifampin-resistance or susceptibility) [2]: + | genotype (rifampin-resistance or susceptibility) (S. chartreuses KCTC 9704): − | genotype (rifampin-resistance or susceptibility) [3]: − | genotype (rifampin-resistance or susceptibility) [4]: − | genotype (rifampin-resistance or susceptibility) (S. ederensis KCTC 9726): + | genotype (rifampin-resistance or susceptibility) (S. pulveraceus KCTC 9766): + | growth in media containing rifampin (S. alboviridis KCTC 9750; S. alboviridis (KCTC 9750), Bennet solid media, FIG. 7 (B)): did not show growth | genotype (rifampin-resistance or susceptibility) (S. alboviridis KCTC 9750; S. alboviridis KCTC 9750, TCG (TCC) genotype, 25 ug/ml rifampin, 72 hr): − | growth in media containing rifampin (S. cinerous KCTC 9066; S. cinerous (KCTC 9066), Bennet solid media, FIG. 7 (A)): generated colonies | genotype (rifampin-resistance or susceptibility) (S. cinerous KCTC 9066; S. cinerous KCTC 9066, AAC genotype, 25 ug/ml rifampin, 72 hr): + | rifampin resistance or sensitivity of the strain ([5]; S. anthocyanicus (KCTC 9755), identical to the known sensitivity results): rifampin-resistant strain | genotype (rifampin-resistant or -sensitive strain) ([5]; S. anthocyanicus KCTC 9755): + | rifampin resistance or sensitivity of the strain ([6]; S. atroolvaceous (KCTC9017), TCG genotype, identical to the known sensitivity results): rifampin-sensitive strains | genotype (rifampin-resistant or -sensitive strain) ([6]; S. atroolvaceous KCTC 9017, TCG (TCC) genotype): − | rifampin resistance or sensitivity of the strain (S. humidus KCCM 40647; S. humidus (KCCM 40647), TCG genotype, identical to the known sensitivity results): rifampin-sensitive strains | genotype (rifampin-resistant or -sensitive strain) (S. humidus KCCM 40647; S. humidus KCCM 40647, TCG (TCC) genotype): − | genotype (rifampin-resistant or -sensitive strain) [7]: − | genotype (rifampin-resistant or -sensitive strain) [8]: + | genotype (rifampin-resistant or -sensitive strain) [9]: − | genotype (rifampin-resistant or -sensitive strain) [10]: − | genotype (rifampin-resistant or -sensitive strain) (S. candidus KCTC 9020): − | genotype (rifampin-resistant or -sensitive strain) (S. chivaensis KCTC 9786): + | genotype (rifampin-resistant or -sensitive strain) [11]: − | genotype (rifampin-resistant or -sensitive strain) [12]: − | genotype (rifampin-resistant or -sensitive strain) (S. erumpens KCTC 9729): − | genotype (rifampin-resistant or -sensitive strain) [13]: − | genotype (rifampin-resistant or -sensitive strain) (S. fulvissimus KCTC 9773): − | genotype (rifampin-resistant or -sensitive strain) [14]: − | genotype (rifampin-resistant or -sensitive strain) (S. halstedii KCCM 40613): − | genotype (rifampin-resistant or -sensitive strain) (S. humiferus KCTC 9116): + | genotype (rifampin-resistant or -sensitive strain) (S. lividans KCTC 1154): + | genotype (rifampin-resistant or -sensitive strain) (S. piosus KCCM 40480): + | genotype (rifampin-resistant or -sensitive strain) [15]: + | genotype (rifampin-resistant or -sensitive strain) [16]: +
